Read-outs that look alike come from different tables or passages of the source.
Columns and labels:
Type in all cases: cell-based
[1] = system: Vesicular stomatitis virus (VSV) Indiana serotype
[2] = system: BVDV cytopathic strain NADL
BVDV strain NADL = assay: microbe, parasite or virus in culture
[3] = VSV-infected cells at MOI=0.01, concentration of 1 mM
[4] = cells infected with VSV at MOI>1

| Compound | antiviral activity [1, 3] | antiviral activity [1, 4] | antiviral activity [2] | inhibition of BVDV replication (BVDV strain NADL) | EC50 (BVDV strain NADL; Bovine viral diarrhea virus isolates and strains, MDBK, read-out: Dm) |
| --- | --- | --- | --- | --- | --- |
| O[C@H]1[C@H](O)[C@@H](O)CN2CC[C@H](O)[C@H]12 [CTS, Castanospermine] | exhibited antiviral activity | none | exhibited antiviral activity |  |  |
| OCCN1CC(O)C(O)C(O)C1CO (stereo not drawn) [miglitol, 3,4,5-piperidinetriol, 1-(2-hydroxyethyl)-2-(hydroxymethyl)-, [2R-(2α, 3β,4α,5β)]] | exhibited antiviral activity | none | only the positive control CTS exhibited antiviral activity | potent antiviral agents that inhibit BVDV replication | 221 µM |
| CC1OC(OC2C(CO)OC(OC3C(CO)OC(O)C(O)C3O)C(O)C2O)C(O)C(O)C1NC1C=C(CO)C(O)C(O)C1O [acarbose, O-4,6-dideoxy-4-[[(1S,4R,5S,6S)-4,5,6-trihydroxy-3-(hydroxymethyl)-2-cyclohexen-1-yl]amino]-α-D-glucopyranosyl-(1→4)-O-α-D-glucopyranosyl-(1→4)-D-glucose] | exhibited antiviral activity | none | only the positive control CTS exhibited antiviral activity | potent antiviral agents that inhibit BVDV replication |  |

From patent US20110177026A1 (priority 2005, published 2011)
